# Reference: US6703412B1 (priority 2002, dated 2004)
# Key:
# sleeplessness [1] = experiment: Example 1: melatonin capsules for subjects having difficulty falling asleep at normal bedtime; format: in vivo, human; conditions: 1.5 mg capsules after one hour of trying to fall asleep
# sleeplessness [2] = experiment: Example 2: melatonin capsules for subjects who awake midway during normal sleep period; format: in vivo, human; conditions: 1.5 mg capsules after 15 minutes of trying to fall back asleep
# Excerpt: Subjects are those who awake at about midway during their normal sleep period and once awake have trouble falling back asleep.
# [3] = 2-100 mg doses, man; cited from earlier work
# mice = mice given 800 mg/kg; cited from earlier work
compound,measurement,setting,value
"COc1ccc2[nH]cc(CCNC(C)=O)c2c1 [Melatonin, N-acetyl-5-methyoxytryptamine]",sleep maintenance,sleeplessness [1],sleep through the night
same,state on awakening,sleeplessness [1],"alert, without any decrement in faculties"
same,time to fall asleep,sleeplessness [1],≤ 20 min
same,sleep maintenance,sleeplessness [2],sleep through the remainder of the night
same,state on awakening,sleeplessness [2],"refreshed, and not sleepy or drowsy"
same,time to fall asleep,sleeplessness [2],≤ 20 min
same,time until awakening,sleeplessness [2],3 to 4 h
same,biological half-life,[3],32-48 minutes
same,death,mice,failed to produce death
